Assay results taken from PMC9403976, “Elucidating the path to Plasmodium prolyl-tRNA synthetase inhibitors that overcome halofuginone resistance” (Nature Communications, 2022).
Where “and” joins values, the source holds several entries; their conditions need not be identical. Equal values may be shown once. Read-outs that look alike come from different tables or passages of the source. Marks after values point to notes of the source that are not given here.

Key:
[1] = molecular target: T1, PfcProRS (Plasmodium falciparum, UniProt Q8I5R7); type: binding; details: for Normalized response, dose-response replicates (SI Fig 14): replicates 1-3
T1 construct: made in house; host or cells: E. coli SoluBL-21

[2] = molecular target: HsProRS (Homo sapiens, UniProt P07814); assay: TR-FRET ligand displacement assay with tracer MAT379 (CoraFluor-1-Halo and anti-His6 antibody formats); type: binding; set-up: made in house; host or cells: E. coli SoluBL-21; details: for normalized TR-FRET signal (dose-response replicates): SI Fig 17a
[3] = test system: P. falciparum Dd2-2D4; assay: P. falciparum asexual blood stage (ABS) growth assay, SYBR Green, 72 h, wild-type parasites; type: cell-based, Plasmodium falciparum
[4] = test system: HFGR-I P. falciparum (elevated proline homeostasis and PfcProRS^L482H); assay: P. falciparum ABS growth assay, SYBR Green, 72 h, HFGR-I parasites; type: cell-based, Plasmodium falciparum; details: for parasite growth, dose-response point: HFGR-I
Method in brief: (§1)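 SYBR Green 1 fluorescence after 72 h quantified growth of erythrocytic-stage Dd2 lines seeded at 1% parasitemia and 1% hematocrit. Compounds were tested in triplicate dose-response format in RPMI with 0.5% Albumax, referenced to 10 μM dihydroartemisinin and untreated wells.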

[5] = test system: halofuginone-induced P. falciparum (elevated proline homeostasis); assay: P. falciparum ABS growth assay, SYBR Green, 72 h, halofuginone-induced parasites; type: cell-based, Plasmodium falciparum; details: for parasite growth, dose-response point: Halofuginone-Induced (HFG-Induced)
Method in brief: as §1

[6] = 10 μM, compound had <50% inhibition
[7] = Log[inhibitor] (M) -5.000, series r4-r15

Chain of HsProRS (P07814 996-1512): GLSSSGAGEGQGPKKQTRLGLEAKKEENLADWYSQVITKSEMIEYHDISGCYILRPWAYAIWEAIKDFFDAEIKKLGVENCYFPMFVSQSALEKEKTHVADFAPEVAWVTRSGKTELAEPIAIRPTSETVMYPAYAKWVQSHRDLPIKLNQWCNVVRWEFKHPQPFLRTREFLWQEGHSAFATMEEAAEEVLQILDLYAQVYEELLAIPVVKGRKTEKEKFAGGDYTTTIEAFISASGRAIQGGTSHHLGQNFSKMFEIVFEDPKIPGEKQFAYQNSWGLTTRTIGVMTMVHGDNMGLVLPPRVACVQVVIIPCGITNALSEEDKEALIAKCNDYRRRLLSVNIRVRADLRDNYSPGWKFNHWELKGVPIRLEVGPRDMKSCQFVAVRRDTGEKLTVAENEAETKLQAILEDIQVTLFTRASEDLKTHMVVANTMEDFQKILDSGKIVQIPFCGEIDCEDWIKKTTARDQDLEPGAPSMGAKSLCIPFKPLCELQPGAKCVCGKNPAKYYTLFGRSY
T1 sequence (Q8I5R7 249-746): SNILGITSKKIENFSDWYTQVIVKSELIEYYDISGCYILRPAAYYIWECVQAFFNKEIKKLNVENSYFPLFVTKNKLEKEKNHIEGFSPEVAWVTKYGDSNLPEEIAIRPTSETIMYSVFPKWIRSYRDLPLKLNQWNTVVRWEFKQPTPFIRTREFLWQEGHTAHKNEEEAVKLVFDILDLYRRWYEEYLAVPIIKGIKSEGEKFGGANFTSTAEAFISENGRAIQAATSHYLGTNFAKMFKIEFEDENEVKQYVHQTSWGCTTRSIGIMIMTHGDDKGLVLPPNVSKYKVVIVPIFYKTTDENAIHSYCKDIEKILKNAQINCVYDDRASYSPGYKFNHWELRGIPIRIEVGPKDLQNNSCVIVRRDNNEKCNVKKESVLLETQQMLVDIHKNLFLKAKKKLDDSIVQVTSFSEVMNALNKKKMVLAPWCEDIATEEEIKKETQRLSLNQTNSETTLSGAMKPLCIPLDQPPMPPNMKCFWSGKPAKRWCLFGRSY

SMILES: CC(C)(C)OC(=O)N1CCC[C@H]1C(=O)NC1CCN(C(=O)Nc2nccnc2C(=O)NC2Cc3ccccc3C2)CC1 [compound 31]
- Normalized response, dose-response replicates (SI Fig 14) ([1]; Log[inhibitor] (M) -5.000): 5.64E-01 and 5.99E-01 and 6.18E-01
- Normalized response, dose-response replicates (SI Fig 14) ([1]; Log[inhibitor] (M) -5.301): 6.96E-01 and 6.54E-01 and 6.55E-01
- Normalized response, dose-response replicates (SI Fig 14) ([1]; Log[inhibitor] (M) -5.601): 8.77E-01 and 8.39E-01 and 9.75E-01
- Normalized response, dose-response replicates (SI Fig 14) ([1]; Log[inhibitor] (M) -5.904): 9.20E-01 and 8.45E-01 and 8.88E-01
- Normalized response, dose-response replicates (SI Fig 14) ([1]; Log[inhibitor] (M) -6.208): 9.89E-01 and 9.27E-01 and 1.07E+00
- Normalized response, dose-response replicates (SI Fig 14) ([1]; Log[inhibitor] (M) -6.509): 1.00E+00 and 9.45E-01 and 8.96E-01
- Normalized response, dose-response replicates (SI Fig 14) ([1]; Log[inhibitor] (M) -6.796): 8.17E-01 and 9.17E-01 and 9.69E-01
- Normalized response, dose-response replicates (SI Fig 14) ([1]; Log[inhibitor] (M) -7.108): 9.90E-01 and 9.44E-01 and 8.89E-01
- Normalized response, dose-response replicates (SI Fig 14) ([1]; Log[inhibitor] (M) -7.409): 9.05E-01 and 8.67E-01 and 8.30E-01
- Normalized response, dose-response replicates (SI Fig 14) ([1]; Log[inhibitor] (M) -7.710): 9.25E-01 and 1.08E+00 and 9.24E-01
- Normalized response, dose-response replicates (SI Fig 14) ([1]; Log[inhibitor] (M) -8.000): 8.19E-01 and 1.06E+00 and 9.65E-01
- Normalized response, dose-response replicates (SI Fig 14) ([1]; Log[inhibitor] (M) -8.301): 1.15E+00 and 1.07E+00 (2×)
- Normalized response, dose-response replicates (SI Fig 14) ([1]; Log[inhibitor] (M) -8.602): 1.06E+00 and 1.03E+00 and 1.05E+00
- Normalized response, dose-response replicates (SI Fig 14) ([1]; Log[inhibitor] (M) -9.000): 8.95E-01 and 9.81E-01 and 1.04E+00
- Normalized response, dose-response replicates (SI Fig 14) ([1]; Log[inhibitor] (M) -9.301): 1.02E+00 and 9.15E-01 and 1.14E+00
- PfcProRS -- best Kd ([1]; SI Fig 16a, values on -log scale): 5.701
- HsProRS % signal at 10 μM, + 100 μM proline ([2]; + 100 μM proline, 10 μM): 59.4%
- Kd ([2]; HsProRS (KD [nM]) −, absence of substrates, 250 nM MAT379): 5130 nM
- Kd ([2]; HsProRS KD + 100 μM proline, bound, + 100 μM proline, bound given in μM): > 5090 nM
- normalised signal, dose-response point (Fig 4d) ([2]; Log[inhibitor] (M) -5.000, series of 31): 4.79E-01 and 4.46E-01
- normalised signal, dose-response point (Fig 4d) ([2]; Log[inhibitor] (M) -5.286): 6.67E-01 and 6.31E-01
- normalised signal, dose-response point (Fig 4d) ([2]; Log[inhibitor] (M) -5.574): 7.84E-01 and 7.77E-01
- normalised signal, dose-response point (Fig 4d) ([2]; Log[inhibitor] (M) -5.862): 8.87E-01 and 8.96E-01
- normalised signal, dose-response point (Fig 4d) ([2]; Log[inhibitor] (M) -6.151): 9.64E-01 and 9.65E-01
- normalised signal, dose-response point (Fig 4d) ([2]; Log[inhibitor] (M) -6.428): 9.34E-01 and 9.44E-01
- normalised signal, dose-response point (Fig 4d) ([2]; Log[inhibitor] (M) -6.729): 9.61E-01 and 9.47E-01
- normalised signal, dose-response point (Fig 4d) ([2]; Log[inhibitor] (M) -7.006): 9.42E-01 and 8.63E-01
- normalised signal, dose-response point (Fig 4d) ([2]; Log[inhibitor] (M) -7.295): 9.55E-01 and 9.92E-01
- normalised signal, dose-response point (Fig 4d) ([2]; Log[inhibitor] (M) -7.585): 1.05E+00 and 9.07E-01
- normalised signal, dose-response point (Fig 4d) ([2]; Log[inhibitor] (M) -7.875): 9.50E-01 and 9.36E-01
- normalised signal, dose-response point (Fig 4d) ([2]; Log[inhibitor] (M) -8.135): 9.31E-01 and 9.40E-01
- normalised signal, dose-response point (Fig 4d) ([2]; Log[inhibitor] (M) -8.477): 9.84E-01 and 9.46E-01
- normalised signal, dose-response point (Fig 4d) ([2]; Log[inhibitor] (M) -8.699): 8.68E-01 and 9.88E-01
- normalised signal, dose-response point (Fig 4d) ([2]; Log[inhibitor] (M) -9.176): 1.01E+00 and 1.00E+00
- normalised signal, dose-response point (Fig 4d) ([2]; Log[inhibitor] (M) -9.363): 9.70E-01 and 9.49E-01
- normalized TR-FRET signal (dose-response replicates) ([2]; Log[inhibitor] (M) -5.000): 3.75E-01 and 3.29E-01 and 2.94E-01
- normalized TR-FRET signal (dose-response replicates) ([2]; Log[inhibitor] (M) -5.301): 5.13E-01 and 4.93E-01 and 4.68E-01
- normalized TR-FRET signal (dose-response replicates) ([2]; Log[inhibitor] (M) -5.601): 7.38E-01 and 6.61E-01 and 6.36E-01
- normalized TR-FRET signal (dose-response replicates) ([2]; Log[inhibitor] (M) -5.904): 7.87E-01 and 7.39E-01 and 7.57E-01
- normalized TR-FRET signal (dose-response replicates) ([2]; Log[inhibitor] (M) -6.208): 8.48E-01 and 8.27E-01 and 8.24E-01
- normalized TR-FRET signal (dose-response replicates) ([2]; Log[inhibitor] (M) -6.509): 8.55E-01 and 8.71E-01 and 8.75E-01
- normalized TR-FRET signal (dose-response replicates) ([2]; Log[inhibitor] (M) -6.796): 8.61E-01 and 8.99E-01 and 9.13E-01
- normalized TR-FRET signal (dose-response replicates) ([2]; Log[inhibitor] (M) -7.108): 8.48E-01 and 8.44E-01 and 8.72E-01
- normalized TR-FRET signal (dose-response replicates) ([2]; Log[inhibitor] (M) -7.409): 9.07E-01 and 8.89E-01 and 8.65E-01
- normalized TR-FRET signal (dose-response replicates) ([2]; Log[inhibitor] (M) -7.710): 8.96E-01 and 8.93E-01 and 8.29E-01
- normalized TR-FRET signal (dose-response replicates) ([2]; Log[inhibitor] (M) -8.000): 9.41E-01 and 8.72E-01 and 9.37E-01
- normalized TR-FRET signal (dose-response replicates) ([2]; Log[inhibitor] (M) -8.301): 8.90E-01 (2×) and 9.30E-01
- normalized TR-FRET signal (dose-response replicates) ([2]; Log[inhibitor] (M) -8.602): 9.13E-01 and 9.30E-01 and 9.15E-01
- normalized TR-FRET signal (dose-response replicates) ([2]; Log[inhibitor] (M) -9.000): 9.52E-01 and 8.88E-01 and 9.53E-01
- normalized TR-FRET signal (dose-response replicates) ([2]; Log[inhibitor] (M) -9.301): 9.64E-01 and 9.01E-01 and 8.76E-01
- percent growth at 10 μM, Dd2 wt [3, 6]: 102%^b
- EC50 ([3]; Plasmodium falciparum, wildtype (Dd2-2D4), bound given in μM, read-out: Dd2 EC50 wildtype (Dd2-2D4), bound): > 10 µM
- % signal at 10 μM, wildtype (Dd2-2D4) ([3]; wildtype (Dd2-2D4), 10 μM): 102%
- percent growth at 10 μM, Dd2 HFGR-I [4, 6]: 103%^b
- % signal at 10 μM, HFGR1 ([4]; HFGR1, 10 μM): 103%
- parasite growth, dose-response point [4, 7]: 106 and 104 and 99
- parasite growth, dose-response point ([4]; Log[inhibitor] (M) -5.301): 101 and 100
- parasite growth, dose-response point ([4]; Log[inhibitor] (M) -5.602): 105 and 102 and 104
- parasite growth, dose-response point ([4]; Log[inhibitor] (M) -5.903): 95 and 102 and 101
- parasite growth, dose-response point ([4]; Log[inhibitor] (M) -6.204): 104 and 99 and 98
- parasite growth, dose-response point ([4]; Log[inhibitor] (M) -6.505): 99 and 95 and 97
- parasite growth, dose-response point ([4]; Log[inhibitor] (M) -6.806): 108 and 106 and 107
- parasite growth, dose-response point ([4]; Log[inhibitor] (M) -7.107): 106 and 105
- parasite growth, dose-response point ([4]; Log[inhibitor] (M) -7.408): 109 and 104 and 106
- parasite growth, dose-response point ([4]; Log[inhibitor] (M) -7.709): 108 and 106
- parasite growth, dose-response point ([4]; Log[inhibitor] (M) -8.010): 103 and 105
- parasite growth, dose-response point ([4]; Log[inhibitor] (M) -8.311): 108 and 105 and 104
- EC50 ([4]; Plasmodium falciparum, DD2, HFGR1, bound given in μM, read-out: Dd2 EC50 HFGR1, bound): > 10 µM
- percent growth at 10 μM, Dd2 Halofuginone-induced [5, 6]: 98%^b
- parasite growth, dose-response point [5, 7]: 103 and 98 and 92
- parasite growth, dose-response point ([5]; Log[inhibitor] (M) -5.301): 107 and 109 and 115
- parasite growth, dose-response point ([5]; Log[inhibitor] (M) -5.602): 124 and 110 and 116
- parasite growth, dose-response point ([5]; Log[inhibitor] (M) -5.903): 117 and 106 and 104
- parasite growth, dose-response point ([5]; Log[inhibitor] (M) -6.204): 111 and 107 and 99
- parasite growth, dose-response point ([5]; Log[inhibitor] (M) -6.505): 98 (2×) and 104
- parasite growth, dose-response point ([5]; Log[inhibitor] (M) -6.806): 109 and 112 and 103
- parasite growth, dose-response point ([5]; Log[inhibitor] (M) -7.107): 105 and 103 and 108
- parasite growth, dose-response point ([5]; Log[inhibitor] (M) -7.408): 116 and 109 and 103
- parasite growth, dose-response point ([5]; Log[inhibitor] (M) -7.709): 115 and 100 and 119
- parasite growth, dose-response point ([5]; Log[inhibitor] (M) -8.010): 104 and 100 and 101
- parasite growth, dose-response point ([5]; Log[inhibitor] (M) -8.311): 107 and 102 and 101
- EC50 ([5]; Plasmodium falciparum, DD2, halofuginone-induced, bound given in μM, read-out: Dd2 EC50 halofuginone-induced, bound): > 10 µM
- % signal at 10 μM, halofuginone-induced ([5]; halofuginone-induced, 10 μM): 97.7%
